“And” between values parts separate entries of the source, which are not always exact repeats. Equal entries are not always repeated.

Experimental findings from PubChem BioAssay AID1919007 (Molecular Pharmacology Branch, DTP, NCI, 2023) are described below.

For this test, the system named is A498 complex spheroids with HUVEC/MSC, growth. Nature of the test: Anticancer human tumor A498 cell line growth inhibition [AhR].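 For all read-outs here: seven day exposure starting three days after spheroid seeding.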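 For viability, T/C: luminescence signal used as a surrogate for viable cells; luminescence viability scaled so 100% equals DMSO vehicle wells.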 Particulars: for viability, T/C: stronger effect = lower value; for IC50: curve of compound. From the text:
Multicellular complex tumor spheroid response to aryl hydrocarbon receptor antagonists in combination with a variety of drugs and investigational agents in selected tumor cell lines
The current study was undertaken to assess response to aryl hydrocarbon receptor antagonists in combination with standard-of-care drugs and investigational agents in solid tumor complex spheroid models. Complex spheroids include a stromal component modeled by human endothelial cells (HUVEC) and fibroblasts modeled by human mesenchymal stem cells (MSCs). The concentration ranges selected for each drug and investigational agent were based upon clinically achievable concentrations if the clinical Cmax of the agent was known.
Compounds. The drugs and investigational agents: BAY 2416964 (NSC825713), GNF351 (NSC835774), CH-223191 (NSC835775), CPI-455 (NSC825282), aza-TdCyd (NSC777586), decitabine (NSC127716), belinostat (NSC758774), entinostat (NSC756642), pevonedistat (NSC761192), tazemetostat (NSC777109), talazoparib (NSC765396), olaparib (NSC753686), selinexor (NSC780203), nedisertib (M3814, NSC802822), bortezomib (NSC756655), venetoclax (NSC766270), doxorubicin (NSC123127), elimusertib (BAY189344, NSC800525), ceralasertib (AZD6738, NSC777638), TAK-243 (NSC785004), alisertib (NSC759677), etoposide (NSC141540), topotecan (NSC609699), eribulin (NSC707389), gemcitabine (NSC613327), carboplatin (NSC241240), cisplatin (NSC119875), and SN-38 (NSC673596) were obtained from the National Cancer Institute (NCI) Developmental Therapeutics Program Chemical Repository (32). The FDA-approved anticancer drug set is available from the Developmental Therapeutics Program at https://dtp.cancer.gov/organization/dscb/obtaining/available plates.htm. […] The stock solutions were prepared in dimethyl sulfoxide (DMSO, Sigma-Aldrich, St. Louis, MO, cat. D2650), except for the platinum compounds which were prepared in saline (Quality Biological, Gaithersburg, MD, cat. 114-055-101), at 800-fold the tested concentration and stored at -70 degrees C prior to their use. All drugs and investigational agents were tested over a range starting from a high concentration at or near the clinical Cmax and decreasing in half-log increments. If the clinical Cmax for an agent had not been determined, the highest concentration tested was 10 microM (Table 1).
Cell Culture. All cells were maintained in an incubator at 37 degrees C and 5% CO2 with 95% humidity. The PDC lines were cultured according to standard operating procedures established by the NCI PDMR (https://pdmr.cancer.gov). Briefly, all PDCs were thawed and cultured in Matrigel-coated flasks prepared with a working solution of 1X Ham's F-12 nutrient mix, without supplementation (Invitrogen, Waltham, MA, cat. 11765054), 100 U/mL penicillin-streptomycin (Invitrogen, cat. 15140122), and 2.5% Matrigel (Corning Inc., Corning, NY, cat. 354248) for the first three passages. All PDCs were cultured in complete DMEM/F-12 media containing advanced DMEM/F-12 (Invitrogen, cat. 12634028), 4.9% defined fetal bovine serum, heat inactivated (HyClone Laboratories Inc., Logan, UT, cat. SH30070.03HI), 389 ng/mL hydrocortisone (Sigma-Aldrich, cat. H4001), 9.7 ng/mL human EGF recombinant protein (Invitrogen, cat. PHG0313), 23.4 microg/mL adenine (Sigma-Aldrich, cat. A2786), 97.3 U/mL penicillin-streptomycin (Invitrogen, cat. 15140122), 1.9 mM L-glutamine (Invitrogen, cat. 25030081), and 9.7 microM Y-27632 dihydrochloride (Tocris Bioscience, Bristol, United Kingdom, cat. 1254). The PDCs were cultured in complete DMEM/F12 media without 10 microM Y-27632 dihydrochloride for at least two passages prior to the screen. The established cell lines NCI-H1341 and […] were cultured in DMEM/F-12, HEPES (Invitrogen, cat. 11330032), 5% defined fetal bovine serum (HyClone Laboratories Inc., cat. SH30070.03), ITS premix universal culture supplement [insulin (5 microg/mL), transferrin (5 microg/mL), and selenious acid (5 ng/mL)] […]

As for `CC(C)CC(NC(=O)C(Cc1ccccc1)NC(=O)c1cnccn1)B(O)O` (stereo not drawn), the IC50 is 5.7 nM and 5.75 nM and 3.57 nM. The viability, T/C (compound 0.000949 µM) is 103% and 105% and 98.6%. The viability, T/C (compound 0.003 µM) is 106% and 99.9% and 58.5%. Further, the viability, T/C (compound 0.00949 µM) was 6.74% and 11.6% and 2.52%. Moreover, under “compound 0.03 µM”, the viability, T/C is 1.23% and 2.41% and 0.68%. For the same molecule, under “compound 0.0949 µM”, the viability, T/C was 0.52% and 1.47% and 1.32%. Also, the viability, T/C (compound 0.3 µM) was 0.53% and 0.64% and 0.32%.
As to `CC1(C)CCC(CN2CCN(c3ccc(C(=O)NS(=O)(=O)c4ccc(NCC5CCOCC5)c([N+](=O)[O-])c4)c(Oc4cnc5[nH]ccc5c4)c3)CC2)=C(c2ccc(Cl)cc2)C1`, the IC50 was 6010 nM and > 10000 nM and 6170 nM. Where the note is “compound 0.0316 µM”, the viability, T/C was 99.2% and 106% and 101%. Also, the viability, T/C (compound 0.1 µM) is 115% and 103% and 98.6%. In addition, where the note is “compound 0.316 µM”, the viability, T/C was 96.3% and 101% and 95.3%. The viability, T/C (compound 1 µM) is 86.8% and 94.5% and 92.4%. Also, under “compound 3.16 µM”, the viability, T/C is 80.8% and 86% and 84.5%. The viability, T/C (compound 10 µM) was 28.3% and 56.8% and 25.5%.
`CC1COCCN1c1cc(-c2ccnn2C)c2ccnc(-c3ccn[nH]3)c2n1` (stereo not drawn): the IC50 was 167 nM and 121 nM and 90.9 nM. For the same molecule, the viability, T/C (compound 0.00316 µM) is 108% and 93.8% and 98.7%. Besides, under “compound 0.01 µM”, the viability, T/C is 111% and 87.4% and 102%. The viability, T/C (compound 0.0316 µM) was 95.7% and 68.2% and 82.7%. Further, the viability, T/C (compound 0.1 µM) was 64.3% and 61.4% and 47.2%. The viability, T/C (compound 0.316 µM) is 32.3% and 25.7% and 21%. Moreover, for the setting “compound 1 µM”, the viability, T/C is 22.3% and 15.8% and 13.9%.
`CCN(c1cc(-c2ccc(CN3CCOCC3)cc2)cc(C(=O)NCc2c(C)cc(C)[nH]c2=O)c1C)C1CCOCC1`: the IC50 is above 3000 nM. Further, for the setting “compound 0.00949 µM”, the viability, T/C is 105% and 107% and 106%. Moreover, for the setting “compound 0.03 µM”, the viability, T/C was 106% (2×) and 107%. In addition, the viability, T/C (compound 0.0949 µM) was 107% and 109% and 106%. Also, the viability, T/C (compound 0.3 µM) was 102% (2×) and 97.8%. Moreover, the viability, T/C (compound 0.949 µM) was 101% and 104% and 108%. Under “compound 3 µM”, the viability, T/C was 103% and 104% and 110%.
For `CC[C@@]1(O)C(=O)OCc2c1cc1n(c2=O)Cc2cc3c(CN(C)C)c(O)ccc3nc2-1`, the IC50 was above 100 nM. Also, the viability, T/C (compound 0.000316 µM) was 97.9% and 107% and 110%. The viability, T/C (compound 0.001 µM) was 103% and 111% and 112%. The viability, T/C (compound 0.00316 µM) was 112% and 102% (2×). For the same molecule, the viability, T/C (compound 0.01 µM) is 86.9% and 93.3% and 98.7%. Also, under “compound 0.0316 µM”, the viability, T/C was 79.8% and 82.3% and 85.8%. Besides, under “compound 0.1 µM”, the viability, T/C was 73.1% and 85% and 66.5%.
Consider `CCc1c2c(nc3ccc(O)cc13)-c1cc3c(c(=O)n1C2)COC(=O)[C@]3(O)CC`, for which the IC50 was 51.1 nM and 109 nM and 21.9 nM. In addition, under “compound 0.000949 µM”, the viability, T/C is 87% and 101% and 90.7%. Further, the viability, T/C (compound 0.003 µM) is 85.5% and 93.3% and 84.1%. Also, the viability, T/C (compound 0.00949 µM) was 65.7% and 84% and 61.2%. Moreover, for the setting “compound 0.03 µM”, the viability, T/C is 58.1% and 70.1% and 45.5%. The viability, T/C (compound 0.0949 µM) is 42.9% and 49.1% and 37.1%. In addition, under “compound 0.3 µM”, the viability, T/C is 33.4% and 41.5% and 29.9%.
With `COc1cc(C2c3cc4c(cc3C(OC3OC5COC(C)OC5C(O)C3O)C3COC(=O)C23)OCO4)cc(OC)c1O` (stereo not drawn), the IC50 was > 10000 nM and 3710 nM. Besides, the viability, T/C (compound 0.0316 µM) was 93% and 80.8% and 89.6%. Where the note is “compound 0.1 µM”, the viability, T/C is 85.5% and 80.2% and 81.8%. The viability, T/C (compound 0.316 µM) is 78.7% and 63.3% and 72.5%. Moreover, for the setting “compound 1 µM”, the viability, T/C was 71.5% and 64% and 69.3%. Besides, the viability, T/C (compound 3.16 µM) is 66.6% and 52.6% and 68.2%. The viability, T/C (compound 10 µM) was 51.8% and 40% and 56.3%.
Take `COc1cc(Nc2ncc3c(n2)-c2ccc(Cl)cc2C(c2c(F)cccc2OC)=NC3)ccc1C(=O)O`: the IC50 is 2480 nM and 3420 nM and 1500 nM. For the same molecule, for the setting “compound 0.0316 µM”, the viability, T/C was 80.4% and 74.9% and 66.8%. Moreover, the viability, T/C (compound 0.1 µM) is 75.4% and 73.6% and 76.6%. In addition, the viability, T/C (compound 0.316 µM) was 72.2% and 71.5% and 58.7%. For the same molecule, the viability, T/C (compound 1 µM) is 55.6% and 60.1% and 52.7%. Besides, the viability, T/C (compound 3.16 µM) was 50% and 51.6% and 46%. The viability, T/C (compound 10 µM) was 38.7% and 36% and 35.6%.
As for `COc1cccc2c1C(=O)c1c(O)c3c(c(O)c1C2=O)CC(O)(C(=O)CO)CC3OC1CC(N)C(O)C(C)O1` (stereo not drawn), the IC50 was 409 nM and 319 nM and 140 nM. Under “compound 0.0316 µM”, the viability, T/C is 67.3% and 67.5% and 58.1%. Moreover, the viability, T/C (compound 0.1 µM) is 70.1% and 60.3% and 55.9%. Moreover, the viability, T/C (compound 0.316 µM) is 56.7% and 50.1% and 38.2%. The viability, T/C (compound 1 µM) was 23.9% and 24.6% and 18.1%. Besides, the viability, T/C (compound 3.16 µM) was 1.61% and 1.62% and 1.55%. In addition, under “compound 10 µM”, the viability, T/C was 0.78% and 0.83% and 0.85%.
